Read-outs that look alike come from different tables or passages of the source.
Tests used:
in vitro [1] = assay type: in vitro ADME, mouse; conditions: for microsomal CLint: read-out: Intrinsic clearance (Clint); for half-life: read-out: half-life (t1/2)
Excerpt: MLM Stability Pooled MLM from male CD-1 mice (BIOIVT M00501) were used.

in vitro [2] = assay type: in vitro ADME, rat; conditions: for microsomal CLint: read-out: Intrinsic clearance (Clint); for half-life: read-out: half-life (t1/2)
Excerpt: RLM Stability Pooled RLM from male Sprague-Dawley rats (Xenotech R1000) were used.

C57BL/6 mice = assay: Mouse head twitch response (HTR) assay (observer-counted); assay type: in vivo; conditions: SC; for HTR at most efficacious dose (bound): 20 min
Protocol: Agonists of the 5-HT2A receptor are well known to induce this effect in rodents and the potency of this HTR is correlated with hallucinogenic potency in humans.
Animals. Adult male C57BL/6 mice, aged 6-8 weeks (body weight 20-25 g) were used in this experiment. Animals were housed under controlled temperatures and 12-hour light/dark cycles (lights on between 07:00-19:00 h), with ad libitum food and water. This study was carried out in strict accordance with the requirements of the Committee for the Purpose of Control and Supervision of Experiments on Animals (CPCSEA), India. All efforts were made to minimize suffering.
Procedure. Mice were administered one dose of the drug and immediately placed into a small open field for behavioral observation. Animals were observed continuously for 20 mins and the number of head twitches (HTs) were counted by an observer blind to the treatment condition.
Statistical Analysis. The data points shown are the mean±standard error of the mean (SEM). Analysis was performed using GraphPad Prism 6. Curves were fit using a non-linear gaussian distribution to calculate ED50 and Emax values.
Additional disclosed compounds were tested in the mouse head twitch response (HTR) assay according to the procedure described in Example 57 (administered SC). […] Lastly, compounds with much larger benzyl and phenethyl substituents on the amine nitrogen (e.g., 10 and 11) were low efficacy in this assay, consistent with their bias toward arrestin signaling (see Example 55).

5-HT2A receptor [3] = biological target: T1, 5-HT2A receptor (Homo sapiens, UniProt P28223); assay: cell-based; assay type: cell-based; set-up: expressed in transfected cells; host or cells: HEK293, stably transfected; conditions: Ca2+ flux; for Emax: HEK293, agonist, HEK293, max dose, read-out: 5-HT2A % Act @ Max Dose; for EC50: agonist, HEK293
Outline: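 FLIPR Ca2+ flux agonist assay using stably transfected HEK293 (5-HT2A, 5-HT2B) or CHO cells co-expressing Gα15 (5-HT1A). Cells loaded with Fluo-4 Direct plus 2.5 mM probenecid (final) for 50 min at 37 °C, then compound added and fluorescence read.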

5-HT2A receptor [4] = biological target: T1, 5-HT2A receptor; assay: cell-based; assay type: cell-based; conditions: beta-arrestin recruitment; for Emax: agonist, max dose, read-out: 5-HT2A Arrestin % Act @ Max Dose
Outline: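 PathHunter β-arrestin recruitment (enzyme fragment complementation): 5-HT2A fused to ProLink donor in cells co-expressing β-arrestin–β-galactosidase acceptor, seeded and held at 37° C before testing. Chemiluminescent read-out; agonist % activity = (sample RLU − vehicle)/(max control ligand − vehicle) × 100.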

5-HT1A receptor = biological target: T2, 5-HT1A receptor (Homo sapiens, UniProt P08908); assay: cell-based; conditions: agonist, Ca2+ flux; for Emax: CHO, CHO cells with Gα15, max dose, read-out: 5-HT1A % Act @ Max Dose; for EC50: CHO cells with Gα15
T2 construct: expressed in transfected cells; host or cells: CHO cells, stably transfected
T2 sequence (P08908 1-422): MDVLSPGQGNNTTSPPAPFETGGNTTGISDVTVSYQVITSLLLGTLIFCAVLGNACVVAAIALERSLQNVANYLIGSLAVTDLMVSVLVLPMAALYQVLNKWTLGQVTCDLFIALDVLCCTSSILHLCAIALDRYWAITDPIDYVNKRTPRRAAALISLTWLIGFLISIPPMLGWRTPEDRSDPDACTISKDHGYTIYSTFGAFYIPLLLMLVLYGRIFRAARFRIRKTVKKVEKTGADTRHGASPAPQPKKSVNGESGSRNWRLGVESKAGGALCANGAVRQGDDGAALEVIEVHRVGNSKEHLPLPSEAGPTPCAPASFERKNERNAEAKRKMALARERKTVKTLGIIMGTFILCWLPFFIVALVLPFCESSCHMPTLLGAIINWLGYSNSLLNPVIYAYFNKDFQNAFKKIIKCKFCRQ
Outline: (§1)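 FLIPR Tetra fluorescence read-out of calcium flux after compound addition. Receptor-expressing stable lines were used (HEK293 for 2A/2B; CHO with Gα15 for 1A), dye-loaded with Fluo-4 Direct and 2.5 mM final probenecid, 50 min at 37 °C.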

5-HT2C receptor = biological target: T3, 5-HT2C receptor (Homo sapiens, UniProt P28335); assay: cell-based; conditions: read-out: 5-HT2C % Act @ Max Dose
T3 sequence (P28335 33-458): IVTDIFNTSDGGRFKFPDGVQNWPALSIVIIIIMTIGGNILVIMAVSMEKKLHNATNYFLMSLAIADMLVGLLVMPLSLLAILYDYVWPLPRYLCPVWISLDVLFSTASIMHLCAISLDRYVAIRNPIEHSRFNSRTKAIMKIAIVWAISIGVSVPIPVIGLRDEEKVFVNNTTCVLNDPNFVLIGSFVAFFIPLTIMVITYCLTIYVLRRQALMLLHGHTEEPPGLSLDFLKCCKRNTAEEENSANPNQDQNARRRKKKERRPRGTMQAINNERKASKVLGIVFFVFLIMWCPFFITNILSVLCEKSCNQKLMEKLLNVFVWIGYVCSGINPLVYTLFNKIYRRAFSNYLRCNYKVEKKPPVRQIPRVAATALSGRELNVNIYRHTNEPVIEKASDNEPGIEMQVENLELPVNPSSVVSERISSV

5-HT2B receptor [5] = biological target: T4, 5-HT2B receptor (Homo sapiens, UniProt P41595); assay: cell-based; assay type: cell-based; conditions: for Emax: HEK293, agonist, HEK293, max dose, read-out: 5-HT2B % Act @ Max Dose; for Emax / EC50: Ca2+ flux; for EC50: agonist, HEK293
T4 construct: expressed in transfected cells; host or cells: HEK293, stably transfected
Outline: as §1

in vitro [6] = assay type: in vitro ADME, human; conditions: for microsomal CLint: read-out: Intrinsic clearance (Clint); for half-life: read-out: half-life (t1/2)
5-HT2A receptor [7] = biological target: T1, 5-HT2A receptor; assay: biochemical; assay type: binding; set-up: expressed in transfected cells; host or cells: HEK293, stably transfected; conditions: [3H]ketanserin 1 nM; HEK293 stable cell line; 1 h, 25 °C
Outline: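 Affinity was measured in radioligand binding experiments using [^3H]ketanserin as the labelled ligand, following methods adapted from published procedures.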

5-HT2B receptor [8] = biological target: T4, 5-HT2B receptor; assay: 5-HT2B receptor radioligand binding ([3H]LSD); conditions: read-out: 5-HT2B Receptor Ki
[9] = agonist, Ca2+ flux, Eurofins DiscoverX protocol, max dose
[10] = mouse, microsomes, MLM (male CD-1) 0.50 mg/mL, NADPH 1 mM, 1 μM compound, pH 7.4, 37° C., 60 min
[11] = rat, microsomes, RLM (male Sprague-Dawley) 0.50 mg/mL, NADPH 1 mM, 1 μM compound, pH 7.4, 37° C., 60 min
[12] = human, microsomes, HLM 0.50 mg/mL, NADPH 1 mM, 1 μM compound, pH 7.4, 37° C., 60 min

T4 sequence (P41595 whole entry): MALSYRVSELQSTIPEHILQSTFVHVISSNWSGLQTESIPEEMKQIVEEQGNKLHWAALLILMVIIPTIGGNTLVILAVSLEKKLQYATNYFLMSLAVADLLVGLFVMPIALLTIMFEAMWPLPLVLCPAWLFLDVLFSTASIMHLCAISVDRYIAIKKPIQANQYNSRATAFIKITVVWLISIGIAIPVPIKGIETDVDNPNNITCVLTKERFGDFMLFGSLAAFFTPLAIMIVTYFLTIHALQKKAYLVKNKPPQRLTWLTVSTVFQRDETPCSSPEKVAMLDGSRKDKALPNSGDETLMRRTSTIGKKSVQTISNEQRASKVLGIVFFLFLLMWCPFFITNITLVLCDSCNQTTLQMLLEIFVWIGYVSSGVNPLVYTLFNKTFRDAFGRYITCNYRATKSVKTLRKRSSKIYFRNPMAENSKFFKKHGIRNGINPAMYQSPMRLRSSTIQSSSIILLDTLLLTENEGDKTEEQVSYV
T1 sequence (P28223 whole entry): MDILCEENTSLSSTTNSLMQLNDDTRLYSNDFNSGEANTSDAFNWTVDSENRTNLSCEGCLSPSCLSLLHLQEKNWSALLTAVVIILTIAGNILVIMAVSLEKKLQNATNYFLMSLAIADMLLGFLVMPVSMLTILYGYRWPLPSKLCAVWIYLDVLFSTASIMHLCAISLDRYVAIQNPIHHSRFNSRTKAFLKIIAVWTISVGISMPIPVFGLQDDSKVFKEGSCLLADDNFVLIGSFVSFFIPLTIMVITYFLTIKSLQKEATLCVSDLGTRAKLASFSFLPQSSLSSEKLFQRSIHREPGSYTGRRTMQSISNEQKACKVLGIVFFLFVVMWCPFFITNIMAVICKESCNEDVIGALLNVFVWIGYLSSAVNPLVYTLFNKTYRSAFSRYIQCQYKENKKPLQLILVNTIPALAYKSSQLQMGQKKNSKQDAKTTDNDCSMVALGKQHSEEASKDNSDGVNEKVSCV

Compound	stability in MLM (in vitro [1])	stability in RLM (in vitro [2])	HTR at most efficacious dose (bound) (C57BL/6 mice) [HTR]	Emax (5-HT2A receptor [3]) [%]	Emax (5-HT2A receptor [4]) [%]	5-HT2A arrestin agonist class (5-HT2A receptor [4])	Emax (5-HT1A receptor) [%]	Emax (5-HT2C receptor; [9]) [%]	Emax (5-HT2B receptor [5]) [%]	stability in HLM (in vitro [6])	half-life (t1/2) (in vitro [1]; mouse, microsomes, pH 7.4) [min]	half-life (t1/2) (in vitro [2]; rat, microsomes, pH 7.4) [min]	Emax (5-HT2C receptor) [%]	half-life (t1/2) (in vitro [6]; human, microsomes, pH 7.4) [min]	Ki (5-HT2A receptor [7]) [nM]	microsomal CLint (in vitro [1]; [10]) [µL/min/mg]	half-life (in vitro [1]; [10]) [min]	microsomal CLint (in vitro [2]; [11]) [µL/min/mg]	half-life (in vitro [2]; [11]) [min]	Ki (5-HT2B receptor [8]) [nM]	other results
CCC[C@@H](C)NC(=O)[C@@H]1C=C2c3cccc4[nH]cc(c34)C[C@H]2N(CCC)C1 [Compound 7, (6aR,9R)—N—((R)-pentan-2-yl)-7-propyl-4,6,6a,7,8,9-hexahydroindolo[4,3-fg]quinoline-9-carboxamide]	much lower stability (higher clearance)	much lower stability (higher clearance)	> 15	94.5	110	full agonists	107	115	94.8	much lower stability (higher clearance)	–	–	–	–	–	–	–	–	–	–	half-life (t1/2) (in vitro [1]; MLM (male CD-1) 0.50 mg/mL, NADPH 1 mM, 1 μM compound, pH 7.4, 37° C., 60 min): 0.541 min; half-life (t1/2) (in vitro [2]; RLM (male Sprague-Dawley) 0.50 mg/mL, NADPH 1 mM, 1 μM compound, pH 7.4, 37° C., 60 min): 1.612 min; selectivity for 5-HT2A over 5-HT2B (5-HT2B receptor [5]; functional, compared to closest N-methyl counterparts Int8, Int11, Int17): more selective for 5-HT2A over 5-HT2B; half-life (t1/2) (in vitro [6]; HLM 0.50 mg/mL, NADPH 1 mM, 1 μM compound, pH 7.4, 37° C., 60 min): 1.65 min
CCC(CC)NC(=O)[C@@H]1C=C2c3cccc4[nH]cc(c34)C[C@H]2N(C)C1 [Int14]	–	–	< 15	93.3	44.4	partial agonists	102	–	9.84	–	6.07	37.988	99.1	17.593	–	–	–	–	–	–	–
CC[C@@H](C)NC(=O)[C@@H]1C=C2c3cccc4[nH]cc(c34)C[C@H]2N(CC)C1 [Compound 5, (6aR,9R)—N—((R)-sec-butyl)-7-ethyl-4,6,6a,7,8,9-hexahydroindolo[4,3-fg]quinoline-9-carboxamide]	much lower stability (higher clearance)	much lower stability (higher clearance)	> 15	103	106	full agonists	108	114	84.8	much lower stability (higher clearance)	–	–	–	–	–	–	–	–	–	–	–
CCC[C@@H](C)NC(=O)[C@@H]1C=C2c3cccc4[nH]cc(c34)C[C@H]2N(C)C1 [Int17]	–	–	< 15	91.5	38.8	partial agonists	113	–	25.5	–	8.252	27.894	102	15.865	–	–	–	–	–	–	# HTR/20 min at Most Efficacious Dose (C57BL/6 mice; most efficacious dose 0.32 mg/kg): 6.0 HTR/20 min
CCN(CC)C(=O)[C@@H]1C=C2c3cccc4[nH]cc(c34)C[C@H]2N(CC2CCCC2)C1 [Compound 90, (6aR,9R)-7-(cyclopentylmethyl)-N,N-diethyl-4,6,6a,7,8,9-hexahydroindolo[4,3-fg]quinoline-9-carboxamide]	–	–	–	55.8	–	–	76.8	–	12	–	–	–	–	–	2.35	649	2.1	370	3.7	2.08	EC50 (5-HT2A receptor [3]): 642 nM; EC50 (5-HT1A receptor): 42600 nM; EC50 (5-HT2B receptor [5]): > 10000 nM; microsomal CLint (in vitro [6]; [12]): 140 µL/min/mg; half-life (in vitro [6]; [12]): 9.9 min
CCN(CC)C(=O)[C@@H]1C=C2c3cccc4[nH]cc(c34)C[C@H]2N(CC2CCCCC2)C1 [Compound 89, (6aR,9R)-7-(cyclohexylmethyl)-N,N-diethyl-4,6,6a,7,8,9-hexahydroindolo[4,3-fg]quinoline-9-carboxamide]	–	–	–	51.8	–	–	84.4	–	11.5	–	–	–	–	–	1.67	572	2.4	244	5.7	9.67	EC50 (5-HT2A receptor [3]): 839 nM; EC50 (5-HT1A receptor): > 100000 nM; EC50 (5-HT2B receptor [5]): > 10000 nM; microsomal CLint (in vitro [6]; [12]): 104 µL/min/mg; half-life (in vitro [6]; [12]): 13.3 min

Source: patent US20260317319A1, “NOVEL ERGOLINES AND METHODS OF TREATING MOOD DISORDERS” (Gilgamesh Pharma Inc., priority 2023, published 2026)
